Patent US10899774B2, “IRAK4 modulators” (Genentech, Inc., priority 2017, dated 2021)

Target: human IRAK4 (Homo sapiens (Human), UniProt Q9NWZ3)
Assay: IRAK4 kinase inhibition, Transcreener fluorescence polarization (ADP detection)
Format: biochemical
Settings: recombinant full-length His6-IRAK4; 1.25 nM IRAK4; 125 μM ATP; 90 min; ATP Km 642 μM
Description: Compounds were assayed for inhibition of human IRAK4 and IRAK1 catalytic activity using recombinant enzyme produced from insect cells. Full-length IRAK4 protein, carrying an N-terminal His6-Tag, was obtained from Life Technologies (Carlsbad, Calif., USA). The IRAK1 construct was produced internally and was comprised of IRAK1 residues Arg194 to Ser712, preceded by an NH2-terminal His6 tag and the coding sequence for glutathione-S-transferase.
Kinase activities were assayed using the Transcreener-Fluorecescence polarization platform (BelBrook Labs, Madison, Wis., USA) that measures amounts of the reaction product, ADP.
384 well assay plates spotted with compound received 4 μl of a 2× substrate (ATP+peptide) mix in reaction buffer, followed by 4 μl of 2× enzyme diluted in reaction buffer.

human IRAK4, sequence (Q9NWZ3 whole entry): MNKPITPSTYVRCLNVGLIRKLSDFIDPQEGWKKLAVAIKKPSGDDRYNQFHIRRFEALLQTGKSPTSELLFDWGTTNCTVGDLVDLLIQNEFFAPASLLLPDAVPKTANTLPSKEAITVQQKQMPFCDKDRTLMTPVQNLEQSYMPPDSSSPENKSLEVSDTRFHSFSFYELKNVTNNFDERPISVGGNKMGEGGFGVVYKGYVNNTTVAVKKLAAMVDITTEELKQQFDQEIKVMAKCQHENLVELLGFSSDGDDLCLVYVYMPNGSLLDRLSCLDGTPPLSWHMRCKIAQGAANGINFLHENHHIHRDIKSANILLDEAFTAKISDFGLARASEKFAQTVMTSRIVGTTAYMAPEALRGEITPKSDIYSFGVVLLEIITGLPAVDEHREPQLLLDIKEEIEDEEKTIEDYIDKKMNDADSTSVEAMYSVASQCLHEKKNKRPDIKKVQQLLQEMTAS

Row | Ki [nM] | Structure (SMILES)
1 | 180 | Cn1nnc2c(C(=O)Nc3cc4c(cc3N3CCOCC3)O[C@@](C)(CO)C4)cncc21 (single isomer, unassigned) [Example 67]
2 | 810 | CC1(C)COc2cc(C(=O)Nc3cc4c(cc3N3CCOCC3)OC(C)(CO)C4)nn2C1 (stereo not shown) [Example 54, N-[2-(Hydroxymethyl)-2-methyl-6-morpholino-3H-benzofuran-5-yl]-6,6-dimethyl-5,7-dihydropyrazolo[5,1-b][1,3]oxazine-2-carboxamide]
3 | 120 | Cn1ccc(C(=O)Nc2cc3c(cc2N2CCOCC2)O[C@@](C)(CO)C3)n1 (single isomer, unassigned) [Example 17]
4 | 25 | CC1(C)Cc2cc(NC(=O)c3cccc(C(F)(F)F)n3)c(N3CCOCC3)cc2O1 [Example 22, N-(2,2-Dimethyl-6-morpholino-2,3-dihydrobenzofuran-5-yl)-6-(trifluoromethyl)picolinamide]
5 | 220 | CCn1nnc2c(C(=O)Nc3cc4c(cc3N3CCOCC3)OC(C)(C)C4)cncc21 [Example 53, N-(2,2-Dimethyl-6-morpholino-3H-benzofuran-5-yl)-3-ethyl-triazolo[4,5-c]pyridine-7-carboxamide]
6 | 5.2 | CC1(C)Cc2cc(NC(=O)c3coc(N4CCOCC4)n3)c(N3CCOCC3)cc2O1 [Example 37, N-(2,2-Dimethyl-6-morpholino-2,3-dihydrobenzofuran-5-yl)-2-morpholinooxazole-4-carboxamide]
7 | 78 | Cn1nnc2c(C(=O)Nc3cc4c(cc3N3CCOCC3)OC(C)(C)C4)cncc21 [Example 50, N-(2,2-Dimethyl-6-morpholino-3H-benzofuran-5-yl)-3-methyl-triazolo[4,5-c]pyridine-7-carboxamide]
8 | 98 | CC1(C)Cc2cc(NC(=O)c3cscn3)c(N3CCOCC3)cc2O1 [Example 42, N-(2,2-Dimethyl-6-morpholino-2,3-dihydrobenzofuran-5-yl)thiazole-4-carboxamide]
9 | 27 | CC1(C)Cc2cc(NC(=O)c3cc4ccncc4o3)c(N3CCOCC3)cc2O1 [Example 10, N-(2,2-Dimethyl-6-morpholino-2,3-dihydrobenzofuran-5-yl)furo[2,3-c]pyridine-2-carboxamide]
10 | 350 | CC1(C)Cc2cc(NC(=O)c3cncc4c3nnn4CCO)c(N3CCOCC3)cc2O1 [Example 64, N-(2,2-Dimethyl-6-morpholino-3H-benzofuran-5-yl)-3-(2-hydroxyethyl)triazolo[4,5-c]pyridine-7-carboxamide]
11 | 1.6 | CC1(C)Cc2cc(NC(=O)c3ccn(-c4ccnc(CO)c4)n3)c(N3CCOCC3)cc2O1 [Example 59, N-(2,2-Dimethyl-6-morpholino-3H-benzofuran-5-yl)-1-[2-(hydroxymethyl)-4-pyridyl]pyrazole-3-carboxamide]
12 | 67 | CC1(C)Cc2cc(NC(=O)c3cnn4c3OCCC4)c(N3CCOCC3)cc2O1 [Example 1, N-(2,2-Dimethyl-6-morpholino-2,3-dihydrobenzofuran-5-yl)-6,7-dihydro-5H-pyrazolo[5,1-b][1,3]oxazine-3-carboxamide]
13 | 14 | CC1(C)Cc2cc(NC(=O)c3ccn(-c4ccc(=O)[nH]c4)n3)c(N3CCOCC3)cc2O1 [Example 66, N-(2,2-Dimethyl-6-morpholino-3H-benzofuran-5-yl)-1-(6-oxo-1H-pyridin-3-yl)pyrazole-3-carboxamide]
14 | 7.6 | CC(=O)Nc1cc(-n2ccc(C(=O)Nc3cc4c(cc3N3CCOCC3)OC(C)(C)C4)n2)ccn1 [Example 49, 1-(2-Acetamido-4-pyridyl)-N-(2,2-dimethyl-6-morpholino-3H-benzofuran-5-yl)pyrazole-3-carboxamide]
15 | 100 | Cn1nnc2c(C(=O)Nc3cc4c(cc3N3CCOCC3)OC(C)(CO)C4)cncc21 (stereo not shown) [Example 52, N-(2-(Hydroxymethyl)-2-methyl-6-morpholino-2,3-dihydrobenzofuran-5-yl)-3-methyl-3H-[1,2,3]triazolo[4,5-c]pyridine-7-carboxamide]
16 | 470 | CC1(C)Cc2cc(NC(=O)c3c[nH]c4cccnc34)c(N3CCOCC3)cc2O1 [Example 28, N-(2,2-Dimethyl-6-morpholino-3H-benzofuran-5-yl)-1H-pyrrolo[3,2-b]pyridine-3-carboxamide]
17 | 16 | CC1(C)Cc2cc(NC(=O)c3ccn(-c4ccnc(C#N)c4)n3)c(N3CCOCC3)cc2O1 [Example 63, 1-(2-Cyano-4-pyridyl)-N-(2,2-dimethyl-6-morpholino-3H-benzofuran-5-yl)pyrazole-3-carboxamide]
18 | 35 | Cc1nc2c(C(=O)Nc3cc4c(cc3N3CCOCC3)OC(C)(C)C4)cncc2[nH]1 [Example 25, N-(2,2-Dimethyl-6-morpholino-2,3-dihydrobenzofuran-5-yl)-2-methyl-3H-imidazo[4,5-c]pyridine-7-carboxamide]
19 | 780 | CC1(C)Cc2cc(NC(=O)c3cccs3)c(N3CCOCC3)cc2O1 [Example 30, N-(2,2-Dimethyl-6-morpholino-2,3-dihydrobenzofuran-5-yl)thiophene-2-carboxamide]

Row | Ki [nM] | Structure (SMILES)
20 | 230 | Cc1ccc(-c2cc3c(cc2NC(=O)c2cnc(C)o2)CC(C)(C)O3)nc1 [Example 29, N-[2,2-Dimethyl-6-(5-methyl-2-pyridyl)-3H-benzofuran-5-yl]-2-methyl-oxazole-5-carboxamide]
21 | 1.4 | Cc1cc(-c2nc(C(=O)Nc3cc4c(cc3N3CCOCC3)OC(C)(C)C4)co2)ccn1 [Example 35, N-(2,2-Dimethyl-6-morpholino-2,3-dihydrobenzofuran-5-yl)-2-(2-methylpyridin-4-yl)oxazole-4-carboxamide]
22 | 280 | CC1(C)Cc2cc(NC(=O)c3cncc4[nH]cnc34)c(N3CCOCC3)cc2O1 [Example 21, N-(2,2-Dimethyl-6-morpholino-2,3-dihydrobenzofuran-5-yl)-3H-imidazo[4,5-c]pyridine-7-carboxamide]
23 | 42 | CC1(C)Cc2cc(NC(=O)c3ccccn3)c(N3CCOCC3)cc2O1 [Example 27, N-(2,2-Dimethyl-6-morpholino-2,3-dihydrobenzofuran-5-yl)picolinamide]
24 | 200 | CC1(C)Cc2cc(NC(=O)c3ncc(C(C)(C)C)[nH]3)c(N3CCOCC3)cc2O1 [Example 47, 5-(tert-Butyl)-N-(2,2-dimethyl-6-morpholino-2,3-dihydrobenzofuran-5-yl)-1H-imidazole-2-carboxamide]
25 | 17 | CC1(C)Cc2cc(NC(=O)c3ccn(-c4ccnc(NCC(F)(F)F)c4)n3)c(N3CCOCC3)cc2O1 [Example 62, N-(2,2-Dimethyl-6-morpholino-3H-benzofuran-5-yl)-1-[2-(2,2,2-trifluoroethylamino)-4-pyridyl]pyrazole-3-carboxamide]
26 | 29 | COc1ccc(-n2ccc(C(=O)Nc3cc4c(cc3N3CCOCC3)OC(C)(C)C4)n2)cn1 [Example 58, N-(2,2-Dimethyl-6-morpholino-3H-benzofuran-5-yl)-1-(6-methoxy-3-pyridyl)pyrazole-3-carboxamide]
27 | 7.4 | CC1(C)Cc2cc(NC(=O)c3coc(C4CC4)n3)c(N3CCOCC3)cc2O1 [Example 38, 2-Cyclopropyl-N-(2,2-dimethyl-6-morpholino-2,3-dihydrobenzofuran-5-yl)oxazole-4-carboxamide]
28 | 3.4 | C[C@@]1(CO)Cc2cc(NC(=O)c3ccc4cccnn34)c(N3CCOCC3)cc2O1 (single isomer, unassigned) [Example 18]
29 | 13 | CC1(C)Cc2cc(NC(=O)c3csc4c(N)ncnc34)c(N3CCOCC3)cc2O1 [Example 3, 4-Amino-N-(2,2-dimethyl-6-morpholino-2,3-dihydrobenzofuran-5-yl)thieno[3,2-d]pyrimidine-7-carboxamide]
30 | 19 | CC1COCCN1c1nc(C(=O)Nc2cc3c(cc2N2CCOCC2)OC(C)(C)C3)cs1 (stereo not shown) [Example 32, N-(2,2-Dimethyl-6-morpholino-2,3-dihydrobenzofuran-5-yl)-2-(3-methylmorpholino)thiazole-4-carboxamide]
31 | 3.7 | Cc1cn(-c2nc(C(=O)Nc3cc4c(cc3N3CCOCC3)OC(C)(C)C4)co2)cn1 [Example 33, N-(2,2-Dimethyl-6-morpholino-2,3-dihydrobenzofuran-5-yl)-2-(4-methyl-1H-imidazol-1-yl)oxazole-4-carboxamide]
32 | 38 | Cc1nc(C(=O)Nc2cc3c(cc2N2CCOCC2)OC(C)(C)C3)cs1 [Example 6, N-(2,2-Dimethyl-6-morpholino-2,3-dihydrobenzofuran-5-yl)-2-methylthiazole-4-carboxamide]
33 | 290 | CC1(C)Cc2cc(NC(=O)c3cnccn3)c(N3CCOCC3)cc2O1 [Example 11, N-(2,2-Dimethyl-6-morpholino-2,3-dihydrobenzofuran-5-yl)pyrazine-2-carboxamide]
34 | 37 | C[C@]1(CO)Cc2cc(NC(=O)c3csc4cc(Cl)cnc34)c(N3CCOCC3)cc2O1 (stereo in doubt) [Example 56, (R)-6-Chloro-N-(2-(hydroxymethyl)-2-methyl-6-morpholino-2,3-dihydrobenzofuran-5-yl)thieno[3,2-b]pyridine-3-carboxamide]
35 | 43 | Cc1cncc(C(=O)Nc2cc3c(cc2N2CCOCC2)OC(C)(C)C3)n1 [Example 7, N-(2,2-Dimethyl-6-morpholino-2,3-dihydrobenzofuran-5-yl)-6-methylpyrazine-2-carboxamide]
36 | 3.8 | CC1(C)Cc2cc(NC(=O)c3csc(N4CCOCC4)n3)c(N3CCOCC3)cc2O1 [Example 36, N-(2,2-Dimethyl-6-morpholino-2,3-dihydrobenzofuran-5-yl)-2-morpholinothiazole-4-carboxamide]
37 | 18 | Cc1nc(C(=O)Nc2cc3c(cc2N2CCOCC2)OC(C)(C)C3)co1 [Example 51, N-(2,2-Dimethyl-6-morpholino-3H-benzofuran-5-yl)-2-methyl-oxazole-4-carboxamide]
